# Source: US9102648B1, “Bioavailable diacylhydrazine ligands for modulating the expression of exogenous genes via an ecdysone receptor complex” (Intrexon Corporation, priority 2003, dated 2015)
# pEC50: −log10 of the molar value. Like-named read-outs stand apart in the source and are kept apart here.
# Columns and labels:
# [1] = target: T1, Bombyx mori EcR (VP16 fusion, CVBE switch construct) (Bombyx mori, UniProt P49881); test: Z3 Assay (HEK-293 cells with CVBE and 6XEcRE LacZ, β-galactosidase reporter); conditions: for Fold Induction, Z3 Assay, 3.3 uM: 3.3 uM ligand; for Fold Induction, Z3 Assay, 3.3 uM / Fold Induction, Z3 Assay, 33 uM: ligand treated / DMSO treated cells; for Fold Induction, Z3 Assay, 33 uM: 33 uM ligand; for Z3 assay Rel Max FI: maximum fold induction at any concentration relative to that of GS-E ligand; for fold induction at 3.3 µM: HEK293, read-out: Fold Induction, Z3 Assay, 3.3 uM; for fold induction at 33 µM: HEK293, read-out: Fold Induction, Z3 Assay, 33 uM
# T1 sequence (P49881 86-606): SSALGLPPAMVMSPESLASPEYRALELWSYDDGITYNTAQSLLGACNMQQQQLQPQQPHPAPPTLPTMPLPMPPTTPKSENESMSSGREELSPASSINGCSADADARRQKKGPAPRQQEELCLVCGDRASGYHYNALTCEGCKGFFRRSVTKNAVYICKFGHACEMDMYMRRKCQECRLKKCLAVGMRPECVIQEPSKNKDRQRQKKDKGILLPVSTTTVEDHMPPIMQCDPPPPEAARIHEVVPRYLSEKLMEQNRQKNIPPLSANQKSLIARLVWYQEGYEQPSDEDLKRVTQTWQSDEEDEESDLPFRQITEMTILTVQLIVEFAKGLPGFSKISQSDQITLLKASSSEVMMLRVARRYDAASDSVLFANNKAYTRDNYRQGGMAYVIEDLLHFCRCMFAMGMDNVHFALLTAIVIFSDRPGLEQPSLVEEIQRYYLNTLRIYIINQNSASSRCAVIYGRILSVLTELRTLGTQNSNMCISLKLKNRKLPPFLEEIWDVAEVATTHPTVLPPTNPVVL
# T1 sequence (P19793 1-462 partner): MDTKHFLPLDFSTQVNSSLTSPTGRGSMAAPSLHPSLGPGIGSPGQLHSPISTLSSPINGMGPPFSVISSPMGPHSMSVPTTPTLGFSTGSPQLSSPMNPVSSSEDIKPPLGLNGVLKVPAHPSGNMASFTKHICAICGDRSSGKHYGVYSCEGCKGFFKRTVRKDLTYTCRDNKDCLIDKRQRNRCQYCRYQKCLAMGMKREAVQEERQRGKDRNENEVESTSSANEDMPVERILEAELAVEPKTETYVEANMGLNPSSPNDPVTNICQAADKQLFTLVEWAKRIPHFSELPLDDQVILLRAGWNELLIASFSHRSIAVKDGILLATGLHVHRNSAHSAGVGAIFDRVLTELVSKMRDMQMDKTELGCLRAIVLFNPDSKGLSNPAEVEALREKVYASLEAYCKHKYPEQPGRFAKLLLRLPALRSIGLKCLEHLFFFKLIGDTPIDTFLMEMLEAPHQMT
# [2] = target: GAL4 DBD-CfEcR(DEF)/VP16AD-MmRXRE (Choristoneura fumiferana, UniProt O77240); test: 13B3 Assay (CHO stable cell line, luciferase reporter); conditions: for Fold Induction, 13B3 Assay, 3.3 uM: 3.3 uM ligand; for Fold Induction, 13B3 Assay, 3.3 uM / Fold Induction, 13B3 Assay, 33 uM: RLU ligand treated / RLU DMSO treated cells; for 13B3 assay Rel Max FI: maximum fold induction at any concentration relative to that of GS-E ligand, CHO 13B3 cells; for Fold Induction, 13B3 Assay, 33 uM: 33 uM ligand; for fold induction at 3.3 µM: read-out: Fold Induction, 13B3 Assay, 3.3 uM; for fold induction at 33 µM: read-out: Fold Induction, 13B3 Assay, 33 uM
# Procedure, shortened: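 CHO 13B3 clone stably expressing GAL4 DBD–CfEcR(DEF) and VP16AD–MmRXR(DE) with GAL4 RE–luciferase reporter; cells plated 24 h at 37 °C, then treated with ligands (DMSO stocks diluted 300-fold), 8 concentrations 33–0.01 μM.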
# [3] = read-out: Z3 assay EC50, HEK-293 Z3 cells, β-galactosidase reporter, average of two wells
# [4] = read-out: 13B3 EC50, CHO 13B3 stable cell line, luciferase reporter, 48 h, average of two wells
SMILES,"Fold Induction, Z3 Assay, 3.3 uM ([1]; average of two wells)","Fold Induction, Z3 Assay, 33 uM ([1]; average of two wells)",Z3 assay Rel Max FI ([1]; HEK-293 Z3 cells),"pEC50 [1, 3]","Fold Induction, 13B3 Assay, 3.3 uM ([2]; average of two wells)",13B3 assay Rel Max FI [2],"pEC50 [2, 4]","Fold Induction, 13B3 Assay, 33 uM ([2]; average of two wells)",pEC50 [1],fold induction at 3.3 µM [1],fold induction at 33 µM [1],pEC50 [2],fold induction at 3.3 µM [2],fold induction at 33 µM [2]
COc1cccc(C(=O)NN(C(=O)c2cc(C)cc(C)c2)C(C)(C)C)c1C[S+](C)[O-] (stereo not drawn) [RG-115172],1,216,0.32,< 4.30,1,0,< 4.30,–,–,–,–,–,–,–
CCc1c(OC)cccc1C(=O)NN(C(=O)c1cc(OC)c(OC(C)=O)c(OC)c1)C(C)(C)C [RG-115191],386,–,0.934,5.62,3,1.513,< 4.30,–,–,–,–,–,–,–
COc1cc(C(=O)N(NC(=O)c2cccc(O)c2C)C(C)(C)C)cc(OC)c1C [RG-115220],298,–,0.591,6.06,5,0.125,< 4.30,1143,–,–,–,–,–,–
"COc1cccc(C(=O)NN(C(=O)c2cc(C)cc(C)c2)C(C)(C)C)c1COC(C)=O [RG-115225, 3,5-dimethyl-benzoic acid N-tert-butyl-N′-(2-acetoxymethyl-3-methoxy-benzoyl)-hydrazide]",–,–,0.32,–,–,0.08,–,–,< 4.30,3,571,6.24,3,8
CCc1ccc(C(=O)NN(C(=O)c2cc(F)c(F)c(F)c2)C(C)(C)C)c(F)c1 [RG-115259],91,–,0.617,6.37,3513,0.702,5.57,2981,–,–,–,–,–,–
CCc1c(C(=O)NN(C(=O)c2cccc(C(F)(F)F)c2)C(C)(C)C)ccc2c1OCO2 [RG-115260],–,526,–,–,–,–,–,13,–,–,–,–,–,–
CCc1c(OC)cccc1C(=O)NN(C(=O)c1cc(C)cc(C)c1)C(C)(C)COC(C)=O [RG-115310],199,960,0.781,5.58,2,0.676,< 4.30,3044,–,–,–,–,–,–
CCc1c(OC)cccc1C(=O)NN(C(=O)c1cccc(C#N)c1)C(C)(C)C [RG-115327],279,325,0.662,5.56,–,–,–,3785,–,–,–,–,–,–
CCc1c(OC)cccc1C(=O)NN(C(=O)c1cc(OC)c(OC)c(OC)c1)C(C)(C)C [RG-115329],259,430,0.892,5.59,–,–,–,5644,–,–,–,–,–,–
CCc1c(OC)cccc1C(=O)NN(C(=O)c1ccccc1[N+](=O)[O-])C(C)(C)C [RG-115330],633,432,0.860,6.73,1995,0.711,5.24,3577,–,–,–,–,–,–
Cc1c(C(=O)NN(C(=O)c2cccc(F)c2)C(C)(C)C)ccc2c1OCCO2 [RG-115350],499,–,0.935,6.51,450,0.711,6.10,–,–,–,–,–,–,–
"COc1cccc(C(=O)NN(C(=O)c2cc(C)cc(C)c2)C(C)(C)C)c1CSC [RG-115358, 3-Methoxy-2-methylsulfanylmethyl-benzoic acid N′-tert-butyl-N′-(3,5-dimethyl-benzoyl)-hydrazide]",–,–,0.48,–,–,0.20,–,–,5.02,33,769,< 4.30,1,584
"COc1cccc(C(=O)NN(C(=O)c2cc(C)cc(C)c2)C(C)(C)C)c1CO [RG-115371, 3,5-dimethyl-benzoic acid N-tert-butyl-N′-(2-hydroxymethyl-3-methoxy-benzoyl)-hydrazide]",–,–,0.76,–,–,1.44,–,–,5.52,249,1770,< 4.30,1,1090
"COc1cccc(C(=O)NN(C(=O)c2cc(C)cc(C)c2)C(C)(C)C)c1CS(C)(=O)=O [RG-115408, 2-methanesulfonylmethyl-3-methoxy-benzoic acid N′-tert-butyl-N′-(3,5-dimethyl-benzoyl)-hydrazide]",–,–,0.01,–,–,0,–,–,< 4.30,1,3,< 4.30,1,–
"CCc1c(OC)cccc1C(=O)NN(C(=O)c1cc(C)cc(/C=N/NC(N)=O)c1)C(C)(C)C [RG-115429, semicarbazide of N-(3-formyl-5-methyl-benzoyl)-N-tert-butyl-N′-(2-ethyl-3-methoxy-benzoyl) hydrazide]",–,–,0.880,–,–,1.065,–,–,5.02,3,1720,5.06,18,1840
"COc1cccc(C(=O)NN(C(=O)c2cc(C)cc(C)c2)C(C)(C)C)c1CCl [RG-115490, 3,5-dimethyl-benzoic acid N-tert-butyl-N′-(2-chloromethyl-3-methoxy-benzoyl)-hydrazide]",–,–,0.44,–,–,1.01,–,–,5.20,123,814,< 4.30,2,844
"COc1cccc(C(=O)NN(C(=O)c2cc(C)cc(C)c2)C(C)(C)C)c1CN(C)C [RG-115497, 3,5-dimethyl-benzoic acid N-tert-butyl-N′-(2-dimethylaminomethyl-3-methoxy-benzoyl)-hydrazide]",–,–,0.07,–,–,0,–,–,< 4.30,1,20,< 4.30,1,–
CCc1c(OC)cccc1C(=O)NN(C(=O)c1cccc(F)c1)C(C)(C)C [RG-115515],1306,420,0.975,6.21,–,–,–,1996,–,–,–,–,–,–
Cc1cc(C)cc(C(=O)N(NC(=O)c2ccc3c(c2Cl)COCO3)C(C)(C)C)c1 [RG-115532],530,–,0.933,6.89,908,0.835,6.29,738,–,–,–,–,–,–
C=Cc1c(OC)cccc1C(=O)NN(C(=O)c1cc(F)c(Cl)cc1Cl)C(C)(C)C [RG-115534],168,249,0.463,5.56,–,–,–,211,–,–,–,–,–,–
Cc1c(C(=O)NN(C(=O)c2cc(Cl)nc(Cl)c2)C(C)(C)C)ccc2c1OCCO2 [RG-115536],488,–,0.950,6.90,483,0.734,6.11,–,–,–,–,–,–,–
